This is an account of results in ChEMBL document CHEMBL4627368, “Acylhydrazones as isoniazid derivatives with multi-target profiles for the treatment of Alzheimer's disease: Radical scavenging, myeloperoxidase/acetylcholinesterase inhibition and biometal chelation” (Bioorg Med Chem, 2020).

Test [1] addresses Acetylcholinesterase (Electrophorus electricus) (UniProt O42275). Nature of the test: Inhibition of Electrophorus electricus AChE at 100 uM using acetylthiocholine iodide as substrate preincubated for 30 mins followed by substrate addition and measured after 10 mins by Ellman's method. For orientation: Ellman's reagent forms a yellow product with free thiols.
The species named for test [2] is Rattus norvegicus. Nature of the test: Inhibition of rat bone marrow myeloperoxidase using H2O2 as substrate at 10 uM after 20 mins by TMB based method (reference value: - 1.4 +/- 12.7%).
Test [3] can be described thus: Antioxidant activity assessed as DPPH radical scavenging activity at 100 uM after 30 mins (reference value: 1.9 +/- 1.2%). Format: functional.
Test [4] is described as follows: Inhibition of rat bone marrow myeloperoxidase using H2O2 as substrate after 20 mins by TMB based method.
Test [5] can be described thus: Antioxidant activity assessed as DPPH radical scavenging activity after 30 mins. Format: functional. (In general: The DPPH test is a chemical assay of radical scavenging.)
Test [6] addresses Acetylcholinesterase (Electrophorus electricus) (UniProt O42275). Nature of the test: Non-competitive mixed inhibition of Electrophorus electricus AChE using acetylthiocholine iodide as substrate preincubated for 30 mins followed by substrate addition and measured after 10 mins by Lineweaver-Burk plot analysis.
The nature of test [7]: Metal chelating activity assessed as compound-Fe2+ complex formation at 20 uM in presence of FeCl2 after 2 hrs by UV-visible spectrophotometric analysis.
Test [8] can be described thus: Metal chelating activity assessed as compound-Fe2+ complex stoichiometry ratio of 2:1 at 20 uM in presence of FeCl2 after 2 hrs by Job's plot analysis.
The nature of test [9]: Metal chelating activity assessed as compound-Zn2+ complex stoichiometry ratio of 2:1 at 20 uM in presence of ZnCl2 after 2 hrs by Job's plot analysis.
Test [10] in a line: Metal chelating activity assessed as compound-Ca2+ complex formation at 20 uM in presence of CaCl2 after 2 hrs by UV-visible spectrophotometric analysis.
Test [11] in a line: Metal chelating activity assessed as compound-Zn2+ complex formation at 20 uM in presence of ZnCl2 after 2 hrs by UV-visible spectrophotometric analysis.
The nature of test [12]: Metal chelating activity assessed as compound-Mg2+ complex formation at 20 uM in presence of MgCl2 after 2 hrs by UV-visible spectrophotometric analysis.
Test [13] in a line: Metal chelating activity assessed as compound-Cu2+ complex formation at 20 uM in presence of Cucl2 after 2 hrs by UV-visible spectrophotometric analysis.

For orientation: inhibition means the relative decrease from the control value, in per cent. As a reminder, the IC50 is the concentration that inhibits the measured activity by half.

The source made the active and inactive calls. The rule behind the calls is not given here.

Sequence of Acetylcholinesterase (Electrophorus electricus) (O42275 24-633 limits assumed): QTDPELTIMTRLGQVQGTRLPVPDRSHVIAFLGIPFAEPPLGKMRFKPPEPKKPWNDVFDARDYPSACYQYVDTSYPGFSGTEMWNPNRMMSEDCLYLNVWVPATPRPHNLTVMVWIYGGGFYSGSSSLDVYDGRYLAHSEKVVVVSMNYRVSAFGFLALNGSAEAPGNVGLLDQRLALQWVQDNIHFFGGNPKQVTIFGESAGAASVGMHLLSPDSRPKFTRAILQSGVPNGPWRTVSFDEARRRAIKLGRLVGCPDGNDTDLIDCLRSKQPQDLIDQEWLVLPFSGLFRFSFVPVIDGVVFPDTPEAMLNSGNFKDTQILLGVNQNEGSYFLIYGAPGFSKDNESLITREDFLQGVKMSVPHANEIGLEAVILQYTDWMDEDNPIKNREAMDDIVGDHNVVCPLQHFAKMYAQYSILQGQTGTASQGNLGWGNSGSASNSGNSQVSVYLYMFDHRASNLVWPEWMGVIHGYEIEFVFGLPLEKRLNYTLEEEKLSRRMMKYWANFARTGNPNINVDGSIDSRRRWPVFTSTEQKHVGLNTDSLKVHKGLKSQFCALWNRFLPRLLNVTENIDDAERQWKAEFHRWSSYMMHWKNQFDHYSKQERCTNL

In the case of `O=C(N/N=C/c1ccc(F)cc1)c1ccncc1`, the inhibition in [1] worked out at 16.3%; in test [2], 4.6%. In test [3], the Activity was 8.1%.
Consider `CCN(C)C(=O)Oc1cccc([C@H](C)N(C)C)c1`, for which the inhibition in test [1] stood at 59.6%; in test [2] it was 17.1%. Also, in test [3], the Activity came out at 0.2%.
For `O=C(N/N=C/c1ccccc1)c1ccncc1`, the inhibition in test [1] was 16.5%; in test [2], 5.1%. In [3], the Activity was found to be 3.3%.
For `COc1ccc(/C=N/NC(=O)c2ccncc2)cc1` the same measures were 8%, 6% and 2.4%.
As to `O=C(N/N=C/c1cc(Br)ccc1O)c1ccncc1`, the figures for the inhibition in [1] and in [2] were 6.8% and 90%, respectively. Also, the Activity in test [3] turned out to be 3.9%. In test [4], the IC50 came out at 4.3 µM.
As for `O=C(N/N=C/c1ccccn1)c1ccncc1`, the inhibition worked out at 24.5% in test [1] and 0.3% in [2]. The Activity in [3] is -0.6%.
For the molecule `O=C(N/N=C/c1ccc([N+](=O)[O-])cc1)c1ccncc1`, the inhibition came to 12.7% in [1] and 32% in test [2]. Besides, the Activity in test [3] came to 2.5%.
As for `O=c1c(O)c(-c2ccc(O)c(O)c2)oc2cc(O)cc(O)c12` [QUERCETIN], the inhibition in test [2] was 96.3%. Moreover, in [3], the Activity came out at 96.3%. Besides, the IC50 in test [5] was 15.3 µM.
Take `O=C(N/N=C/c1ccc(O)cc1)c1ccncc1`: the inhibition in [1] is 10%. In test [3], the Activity turned out to be 28.7%.
As to `COc1cc(/C=N/NC(=O)c2ccncc2)ccc1O` [FTIVAZIDE], the inhibition in test [1] turned out to be 23.1%; in test [2] it was 17.3%. The Activity in test [3] was 76.7%. In addition, the IC50 in test [5] turned out to be 33.6 µM.
Take `CN(C)c1ccc(/C=N/NC(=O)c2ccncc2)cc1` [N'-(4-DIMETHYLAMINOBENZYLIDENE)ISONICOTINOHYDRAZIDE]: the inhibition in test [1] turned out to be 6.9%; in test [2], 96.1%. Moreover, the Activity in [3] was determined as 6.3%. The molecule also returned an IC50 in [4] of 1.4 µM.
Turning to `O=C(N/N=C/c1ccccc1O)c1ccncc1`, the inhibition in test [1] was found to be 3%; in test [2], 45.3%. Besides, the Activity in test [3] came out at 5.3%.
Turning to `O=C(N/N=C/c1c[nH]c2ccccc12)c1ccncc1`, the inhibition in [1] was determined as 5.5%; in test [2] it was 82.2%. For the same molecule, the Activity in test [3] amounted to 28.8%. Besides, the IC50 in test [4] is 1.5 µM.
Consider `O=C(N/N=C/c1coc2ccccc2c1=O)c1ccncc1`, for which the values for the inhibition in test [1] and in test [2] were 54.2% and 80.1%, respectively. Further, the inhibition entry in test [6] is “Active”. The Activity in test [3] came to 82.2%. The IC50 amounted to 42.4 µM in [5] and 5.3 µM in test [4]. Besides, the result in test [7], in test [8], in test [9], in [11] and in [13] was Active. Moreover, the result in test [10] and in test [12] was inactive.
For `NNC(=O)c1ccncc1` [ISONIAZID], the inhibition came to 5.8% in [1] and 99% in [2]. Besides, the Activity in test [3] turned out to be 91.3%. Further, the IC50 came to 22.9 µM in [5] and 3.9 µM in [4].
Turning to `O=C(N/N=C/c1cccc([N+](=O)[O-])c1)c1ccncc1`, the figures for the inhibition in test [1] and in [2] were 36.2% and -10%, respectively. The Activity in test [3] was 2%.
`O=C(N/N=C/c1cc(O)ccc1O)c1ccncc1`: the inhibition in test [1] was 0.3%; in [2], 100%. Moreover, the Activity in [3] was determined as 92.4%. The values for the IC50 in test [5] and in test [4] were 18.3 µM and 4.8 µM, respectively.
As for `O=C(N/N=C/c1ccc(Cl)c(Cl)c1)c1ccncc1`, the figures for the inhibition in [1] and in [2] were 14% and -2.4%, respectively. The Activity in test [3] is 3.9%.
